Assay results taken from ChEMBL document CHEMBL6153155, “Novel Cyclohexyl Amido Acid Antagonists of Lysophosphatidic Acid Type 1 Receptor for the Treatment of Pulmonary Fibrosis” (ACS Med Chem Lett, 2025).
In brackets after ≈: the same amount, converted by molar mass. Values belong to the molecule of their own block, whether it stands above or below them.

Experiments:
[1] = Lipophilicity, logD of compound at pH 7.4 by chromatographic hydrophobicity index method; format: physicochemical; details: buffer
[2] = biological target: BSEP (Homo sapiens, UniProt O95342); experiment: (§1) Inhibition of BSEP in cryopreserved sandwich-cultured human hepatocytes by measuring reduction in TCA biliary clearance using taurocholic acid as substrate at 50 uM relative to control; format: cell-based, Hepatocyte; details: cryopreserved sandwich-cultured hepatocytes, probe taurocholic acid
[3] = Metabolic stability in female C57BL/6J mouse liver microsomes assessed as intrinsic clearance measured per mg of protein at 0.5 uM measured upto 45 mins in presence of NADPH regenerating system by HPLC-MS/MS analysis; format: ADME, Microsome; details: read-out: CLH
[4] = Metabolic stability in human liver microsomes assessed as intrinsic clearance measured per mg of protein at 0.5 uM measured upto 45 mins in presence of NADPH regenerating system by HPLC-MS/MS analysis; format: ADME, Microsome; details: read-out: CLH
[5] = Clearance in female C57BL/6J mouse at 2 mg/kg, iv measured after 24 hrs by UPLC-MS/MS analysis; format: ADME, organism-based; details: in vivo
[6] = Unbound AUClast in female C57BL/6J mouse lung at 30 mg/kg, po measured after 24 hrs by UPLC-MS/MS analysis; format: ADME, organism-based; details: in vivo
[7] = Aqueous solubility of the compound at pH 7.4; format: physicochemical; details: buffer
[8] = Unbound Cmax in female C57BL/6J mouse lung at 30 mg/kg, po measured after 24 hrs by UPLC-MS/MS analysis; format: ADME, organism-based; details: in vivo
[9] = Unbound AUClast in female C57BL/6J mouse plasma at 30 mg/kg, po measured after 24 hrs by UPLC-MS/MS analysis; format: ADME, organism-based; details: in vivo
[10] = Tlast in female C57BL/6J mouse lung at 30 mg/kg, po measured after 24 hrs by UPLC-MS/MS analysis; format: ADME, organism-based; details: in vivo
[11] = Unbound Cmax in female C57BL/6J mouse plasma at 30 mg/kg, po measured after 24 hrs by UPLC-MS/MS analysis; format: ADME, organism-based; details: in vivo
[12] = Oral bioavailability in female C57BL/6J mouse at 2 mg/kg, iv measured after 24 hrs by UPLC-MS/MS analysis; format: ADME, organism-based; details: in vivo
[13] = Half life in female C57BL/6J mouse at 2 mg/kg, iv measured after 24 hrs by UPLC-MS/MS analysis; format: ADME, organism-based; details: in vivo
[14] = Total Cmax in female C57BL/6J mouse plasma at 30 mg/kg, po measured after 24 hrs by UPLC-MS/MS analysis; format: ADME, organism-based
[15] = Volume of distribution at steady state in female C57BL/6J mouse at 2 mg/kg, iv measured after 24 hrs by UPLC-MS/MS analysis; format: ADME, organism-based; details: in vivo, read-out: Vdss
[16] = Total Cmax in female C57BL/6J mouse lung at 30 mg/kg, po measured after 24 hrs by UPLC-MS/MS analysis; format: ADME, organism-based
[17] = Tlast in female C57BL/6J mouse plasma at 30 mg/kg, po measured after 24 hrs by UPLC-MS/MS analysis; format: ADME, organism-based; details: in vivo
[18] = biological target: T1, Bile salt export pump (Homo sapiens, UniProt O95342); experiment: Inhibition of BSEP in cryopreserved sandwich-cultured human hepatocytes by measuring reduction in TCA biliary clearance using taurocholic acid as substrate; format: cell-based, Hepatocyte
[19] = Total AUClast in female C57BL/6J mouse plasma at 30 mg/kg, po measured after 24 hrs by UPLC-MS/MS analysis; format: ADME, organism-based; details: in vivo
[20] = biological target: Lysophosphatidic acid receptor 1 (Mus musculus, UniProt P61793); experiment: Antagonist activity at mouse LPA1 transfected in human HeLa cells incubated for 30 mins by FLIPR-based calcium mobilization assay; format: cell-based
[21] = Total AUClast in female C57BL/6J mouse lung at 30 mg/kg, po measured after 24 hrs by UPLC-MS/MS analysis; format: ADME, organism-based; details: in vivo
[22] = biological target: T1, Bile salt export pump; experiment: as §1; format: cell-based, Hepatocyte; details: hepatocytes, 50 µM
[23] = tested on: Mus musculus; experiment: Inhibition of LPA-stimulated histamine release in male CD1 mouse plasma assessed as effective dose administered as po dose pretreated for 30 mins followed by LPA addition measured after 2 mins by enzyme immunoassay; format: functional; details: 32 min
[24] = Drug uptake in mouse lung at 30 mg/kg, po measured upto 24 hrs; format: ADME, organism-based; details: in vivo

Chain of Lysophosphatidic acid receptor 1 (P61793 whole entry): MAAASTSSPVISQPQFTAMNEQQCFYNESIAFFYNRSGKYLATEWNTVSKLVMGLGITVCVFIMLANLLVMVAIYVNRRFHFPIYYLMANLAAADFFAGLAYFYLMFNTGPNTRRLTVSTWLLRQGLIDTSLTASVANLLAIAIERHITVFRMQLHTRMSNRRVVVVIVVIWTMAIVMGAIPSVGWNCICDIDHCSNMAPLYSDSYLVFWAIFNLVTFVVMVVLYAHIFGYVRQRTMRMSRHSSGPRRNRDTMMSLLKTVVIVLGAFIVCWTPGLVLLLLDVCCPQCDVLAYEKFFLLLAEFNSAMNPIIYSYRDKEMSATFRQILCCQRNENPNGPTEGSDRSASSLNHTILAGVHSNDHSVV
Chain of BSEP (O95342 whole entry): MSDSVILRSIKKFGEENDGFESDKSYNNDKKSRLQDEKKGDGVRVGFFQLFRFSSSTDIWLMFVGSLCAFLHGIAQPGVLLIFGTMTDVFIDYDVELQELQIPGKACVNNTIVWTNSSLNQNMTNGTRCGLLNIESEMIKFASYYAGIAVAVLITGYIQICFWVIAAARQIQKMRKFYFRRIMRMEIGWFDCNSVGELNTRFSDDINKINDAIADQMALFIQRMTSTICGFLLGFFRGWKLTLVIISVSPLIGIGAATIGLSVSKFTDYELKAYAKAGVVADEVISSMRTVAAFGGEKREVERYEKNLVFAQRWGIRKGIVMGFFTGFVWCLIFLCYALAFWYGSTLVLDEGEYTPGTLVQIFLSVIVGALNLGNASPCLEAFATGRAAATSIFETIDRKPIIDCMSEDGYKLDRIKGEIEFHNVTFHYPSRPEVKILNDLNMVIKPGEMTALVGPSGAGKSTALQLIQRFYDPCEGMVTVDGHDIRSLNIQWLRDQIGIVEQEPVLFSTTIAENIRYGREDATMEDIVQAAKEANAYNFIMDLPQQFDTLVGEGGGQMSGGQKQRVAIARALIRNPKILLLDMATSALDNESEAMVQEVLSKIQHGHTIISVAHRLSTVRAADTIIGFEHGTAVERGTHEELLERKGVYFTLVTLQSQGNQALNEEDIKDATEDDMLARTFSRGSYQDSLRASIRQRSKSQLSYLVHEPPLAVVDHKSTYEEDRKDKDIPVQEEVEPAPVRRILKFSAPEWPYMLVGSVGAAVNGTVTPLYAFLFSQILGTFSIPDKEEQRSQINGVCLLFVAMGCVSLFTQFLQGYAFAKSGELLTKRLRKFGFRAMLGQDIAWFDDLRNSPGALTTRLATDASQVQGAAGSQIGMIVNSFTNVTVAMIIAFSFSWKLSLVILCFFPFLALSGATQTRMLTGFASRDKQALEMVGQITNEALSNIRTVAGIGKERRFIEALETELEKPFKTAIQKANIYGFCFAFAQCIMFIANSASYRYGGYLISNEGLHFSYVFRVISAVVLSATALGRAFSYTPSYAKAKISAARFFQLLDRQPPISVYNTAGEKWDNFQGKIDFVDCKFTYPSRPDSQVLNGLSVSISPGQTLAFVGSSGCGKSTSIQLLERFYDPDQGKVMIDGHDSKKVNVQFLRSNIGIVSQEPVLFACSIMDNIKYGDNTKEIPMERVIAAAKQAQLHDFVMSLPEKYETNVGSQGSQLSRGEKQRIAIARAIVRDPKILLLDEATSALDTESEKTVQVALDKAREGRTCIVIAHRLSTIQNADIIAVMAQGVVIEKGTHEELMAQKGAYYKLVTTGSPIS
T1 sequence (O95342 whole entry): as above

chromatographic logD [1]: 1.39
microsomal CLint at 0.5 µM [3]: 19.5 µL/min/mg
microsomal CLint at 0.5 µM [4]: 2.84 µL/min/mg
SMILES: Cc1noc(-c2ccc(NC(=O)[C@H]3CCCC[C@@H]3C(=O)O)cc2)c1NC(=O)O[C@H](C)c1ccccc1Cl
inhibition at 50 µM [2]: 72%

clearance [5]: 2.99 mL/min/kg
chromatographic logD [1]: 1.12
fAUClast [6]: 1071 h/ng/mL
solubility [7]: 295 µM (≈ 159 µg/mL)
fCmax [8]: 498 ng/mL
fAUClast [9]: 2621 h/ng/mL
Tlast [10]: 8 h
fCmax [11]: 1758 ng/mL
bioavailability [12]: 49%
half-life [13]: 2.48 h
Cmax [14]: 54200 ng/mL
Vd [15]: 0.35 L/kg
microsomal CLint at 0.5 µM [3]: < 2 µL/min/mg
Cmax [16]: 7950 ng/mL
Tlast [17]: 8 h
microsomal CLint at 0.5 µM [4]: 7 µL/min/mg
AUClast [19]: 80800 h/ng/mL
IC50 [20]: 0.0251 µM
AUClast [21]: 17100 h/ng/mL
SMILES: Cc1nc(-c2cnn(C)c2NC(=O)O[C@H](C)c2ccccc2Cl)ccc1NC(=O)[C@H]1CCCC[C@@H]1C(=O)O
inhibition at 50 µM [2]: 28%
IC50 [18]: > 100 µM

SMILES: CCOc1cncc(Nc2c(C)noc2-c2ccc(NC(=O)[C@H]3CCCC[C@@H]3C(=O)O)c(C)n2)n1
inhibition (INH) [22]: Not_active

chromatographic logD [1]: 1.36
solubility [7]: 519 µM (≈ 245 µg/mL)
microsomal CLint at 0.5 µM [3]: 3.7 µL/min/mg
microsomal CLint at 0.5 µM [4]: 3.1 µL/min/mg
SMILES: CCC[C@@H](C)OC(=O)Nc1c(C)noc1-c1ccc(NC(=O)[C@H]2CCCC[C@@H]2C(=O)O)c(C)n1
inhibition at 50 µM [2]: 48%

SMILES: Cc1noc(-c2ccc(NC(=O)[C@@H]3CCCC[C@H]3C(=O)O)cc2)c1NC(=O)O[C@H](C)c1ccccc1Cl
inhibition at 50 µM [2]: 66%

clearance [5]: 6.96 mL/min/kg
chromatographic logD [1]: 1.52
fAUClast [6]: 262 h/ng/mL
solubility [7]: 458 µM (≈ 242 µg/mL)
fCmax [8]: 139 ng/mL
fAUClast [9]: 1249 h/ng/mL
Tlast [10]: 8 h
fCmax [11]: 749 ng/mL
bioavailability [12]: 66%
half-life [13]: 0.69 h
Cmax [14]: 26500 ng/mL
Vd [15]: 0.24 L/kg
microsomal CLint at 0.5 µM [3]: 4 µL/min/mg
Cmax [16]: 4230 ng/mL
Tlast [17]: 24 h
microsomal CLint at 0.5 µM [4]: 6.3 µL/min/mg
AUClast [19]: 44200 h/ng/mL
IC50 [20]: 0.0316 µM
AUClast [21]: 8000 h/ng/mL
SMILES: Cc1noc(-c2ccc(NC(=O)[C@H]3CCCC[C@@H]3C(=O)O)cn2)c1NC(=O)O[C@H](C)c1ccccc1Cl
ED50 [23]: 0.1 mg/kg
inhibition at 50 µM [2]: 50%
IC50 [18]: 50.1 µM

SMILES: Cc1nc(-c2onc(C)c2Nc2cncc(OC3CC3)n2)ccc1NC(=O)[C@H]1CCCC[C@@H]1C(=O)O
inhibition (INH) [22]: Not_active

chromatographic logD [1]: 1.5
solubility [7]: 555 µM (≈ 302 µg/mL)
microsomal CLint at 0.5 µM [3]: 5.4 µL/min/mg
microsomal CLint at 0.5 µM [4]: 1 µL/min/mg
SMILES: Cc1noc(-c2ccc(NC(=O)[C@H]3CCCC[C@@H]3C(=O)O)c(F)n2)c1NC(=O)O[C@H](C)c1ccccc1Cl
inhibition at 50 µM [2]: 50%

clearance [5]: 1.75 mL/min/kg
chromatographic logD [1]: 1.27
fAUClast [6]: 3967 h/ng/mL
solubility [7]: 641 µM (≈ 325 µg/mL)
fCmax [8]: 1225 ng/mL
fAUClast [9]: 7686 h/ng/mL
Tlast [10]: 8 h
fCmax [11]: 2189 ng/mL
bioavailability [12]: 100%
half-life [13]: 1.81 h
Drug uptake [24]: Active
Cmax [14]: 89700 ng/mL
Vd [15]: 0.2 L/kg
microsomal CLint at 0.5 µM [3]: 3.5 µL/min/mg
Cmax [16]: 17700 ng/mL
Tlast [17]: 24 h
microsomal CLint at 0.5 µM [4]: 2.3 µL/min/mg
AUClast [19]: 315000 h/ng/mL
IC50 [20]: 0.0126 µM
AUClast [21]: 57300 h/ng/mL
SMILES: Cc1nc(-c2onc(C)c2NC(=O)O[C@H](C)c2ccccc2)ccc1NC(=O)[C@H]1CCCC[C@@H]1C(=O)O
ED50 [23]: 0.1 mg/kg
inhibition at 50 µM [2]: 28%
IC50 [18]: 100 µM

microsomal CLint at 0.5 µM [3]: 6 µL/min/mg
microsomal CLint at 0.5 µM [4]: 0.3 µL/min/mg
SMILES: Cc1nc(-c2onc(C)c2NC(=O)O[C@H](C)c2ccccn2)ccc1NC(=O)[C@H]1CCCC[C@@H]1C(=O)O
inhibition at 50 µM [2]: 0%

SMILES: Cc1nc(-c2onc(C)c2Nc2cncc(C3CC3)n2)ccc1NC(=O)[C@H]1CCCC[C@@H]1C(=O)O
inhibition (INH) [22]: Not_active

SMILES: CCNc1cncc(Nc2c(C)noc2-c2ccc(NC(=O)[C@H]3CCCC[C@@H]3C(=O)O)c(C)n2)n1
inhibition (INH) [22]: Not_active

SMILES: Cc1nc(-c2ncccc2NC(=O)O[C@H](C)c2ccccc2Cl)ccc1NC(=O)[C@H]1CCCC[C@@H]1C(=O)O
inhibition (INH) [22]: Not_active

chromatographic logD [1]: 1.69
solubility [7]: 509 µM (≈ 282 µg/mL)
microsomal CLint at 0.5 µM [3]: 4 µL/min/mg
microsomal CLint at 0.5 µM [4]: < 2 µL/min/mg
SMILES: Cc1cc(NC(=O)[C@H]2CCCC[C@@H]2C(=O)O)c(C)nc1-c1onc(C)c1NC(=O)O[C@H](C)c1ccccc1Cl
inhibition at 50 µM [2]: 73%

chromatographic logD [1]: 1.69
solubility [7]: 525 µM (≈ 292 µg/mL)
microsomal CLint at 0.5 µM [3]: 11.8 µL/min/mg
microsomal CLint at 0.5 µM [4]: 7 µL/min/mg
SMILES: Cc1nc(-c2onc(C)c2CNC(=O)O[C@H](C)c2ccccc2Cl)ccc1NC(=O)[C@H]1CCCC[C@@H]1C(=O)O
inhibition at 50 µM [2]: 82%

chromatographic logD [1]: 1.55
solubility [7]: 503 µM (≈ 280 µg/mL)
microsomal CLint at 0.5 µM [3]: 7.6 µL/min/mg
microsomal CLint at 0.5 µM [4]: 7.6 µL/min/mg
SMILES: Cc1nc(-c2snc(C)c2NC(=O)O[C@H](C)c2ccccc2Cl)ccc1NC(=O)[C@H]1CCCC[C@@H]1C(=O)O
inhibition at 50 µM [2]: 64%

SMILES: Cc1noc(-c2ccc(NC(=O)C3CCCC(C(=O)O)C3)cc2)c1NC(=O)O[C@H](C)c1ccccc1Cl (single isomer, unassigned; diastereomer 1)
inhibition (INH) [22]: Not_active

clearance [5]: 2.05 mL/min/kg
chromatographic logD [1]: 0.86
fAUClast [6]: 3846 h/ng/mL
solubility [7]: 644 µM (≈ 318 µg/mL)
fCmax [8]: 1597 ng/mL
fAUClast [9]: 3105 h/ng/mL
Tlast [10]: 8 h
fCmax [11]: 1726 ng/mL
bioavailability [12]: 45%
half-life [13]: 1.96 h
Cmax [14]: 60600 ng/mL
Vd [15]: 0.16 L/kg
microsomal CLint at 0.5 µM [3]: 11 µL/min/mg
Cmax [16]: 10300 ng/mL
Tlast [17]: 8 h
microsomal CLint at 0.5 µM [4]: < 2 µL/min/mg
AUClast [19]: 109000 h/ng/mL
IC50 [20]: 0.0398 µM
AUClast [21]: 24800 h/ng/mL
SMILES: Cc1nc(-c2onc(C)c2Nc2cncc(OC(C)C)n2)ccc1NC(=O)[C@H]1CCCC[C@@H]1C(=O)O
inhibition at 50 µM [2]: 18%
IC50 [18]: > 100 µM
